# Measured values as given in US20090258069A1, “Delivery of LFA-1 antagonists to the gastrointestinal system” (priority 2008, published 2009).
# Where “and” joins values, the source holds several entries; their conditions need not be identical. Equal entries are not always repeated. Where two headings read alike, the source gives them in different places.
# Legend:
# [1] = test system: Keratoconjunctivitis Sicca (KCS); assay: Canine keratoconjunctivitis sicca (KCS) study, Schirmer tear test and conjunctival biopsy; type: in vivo, dog; settings: for Schirmer Tear Test Results (OD), Mean: Dog #1 not included; for Schirmer Tear Test Results (OS), Mean: Dog #7 not included; for Schirmer Tear Test Results (OS), individual dogs: left eye; for Schirmer Tear Test Results (OD), individual dogs: right eye
# Source text: If dogs had been treated with topical CsA or tacrolimus in the previous six months, they were not enrolled. […] Animals were subjected to an ocular examination once during the initial visit and during five visits over sixteen weeks of the study (Weeks, 2, 4, 8, 12 and 16). The last OE was approximately four weeks after the last dose of Compound 12 and after one month of CsA treatment. The adnexa and anterior portions of both eyes were examined using an indirect opthalmoscope. The eyes were dilated with a mydriatic when applicable, to allow evaluation of the lens and fundus, including the retina. An evaluation using a modified McDonald-Shaddock scoring system was performed in conjunction with the slitlamp ocular examinations at each interval. […] One strip of STT paper was used for each eye for each interval. […] The length, in mm, of wetting below the notch of the paper was recorded. Conjunctival biopsies were taken at the initial (pretreatment) visit and the Week 12 visit. The second biopsy was taken more lateral (approx. 1 mm) to the initial biopsy. Following appropriate preparation a small conjunctival biopsy was taken from the ventral fornix of each eye.
# [2] = test system: attachment of Jurkat cells to ICAM-1; assay: T-cell adhesion assay using Jurkat cells; type: cell-based, human
# Procedure: A reported LFA-1 antagonist was used as the positive control.
# Jurkat cells were labeled with an 8 μM solution of BCECF-AM (2′,7′-bis-(2-carboxyethyl)-5-(and -6)-carboxyfluorescein) in growth media at room temperature for 15 minutes. […] Non-adherent cells were removed by washing and centrifugation at 100 g for 1 minute. Adherent cells were determined as adherent fluorescent units on a fluorescent plate reader.
# [3] = Phase 1 clinical trial, tear PK; type: in vivo, human
# Source text: A 48-hour post-dose sample was obtained following Day 1, 14, and 27.
# [4] = test system: rats; assay: Respiratory function in rats, single IV bolus, head-out plethysmograph; type: in vivo, rat; settings: any dose
# [5] = Single dose ocular and IV ADME with [^14C]-Compound 12 in rats, quantitative whole body autoradiography; type: in vivo, rat; settings: for Compound 12 Concentration, Aqueous humor / Compound 12 Concentration, Conjunctiva (bulbar) / Compound 12 Concentration, Conjunctiva (palpebral) / Compound 12 Concentration, Cornea / Compound 12 Concentration, Iris-ciliary body / Compound 12 Concentration, Lens / Compound 12 Concentration, Optic Nerve / Compound 12 Concentration, Retina and Choroid (with RPE) / Compound 12 Concentration, Sclera / Compound 12 Concentration, Vitreous Humor: ocular dosing in rats; for excretion in feces, of the administered radioactivity: 0 to 168 hours postdose
# Procedure: Quantitative whole body […] assessments were performed.
# Little or no drug is observed in systemic distribution.
# [6] = Plasma PK in rats after a single IV bolus dose; type: in vivo, rat; settings: for AUC: read-out: AUC0-n
# [7] = Solubility studies; type: physicochemical
# [8] = Skin transport studies on microtomed human skin; type: in vitro ADME; settings: 1% (w/w) prototypes; [^14C]-Compound 12
# Source text: Prototypes have been developed and tested on microtomed human skin from elective surgery at 1% (w/w). The forms include gels, ointment, or lotion. […] Skin transport studies performed with LC/MS/MS analysis indicate high Compound 12 levels in epidermis and dermis and low levels in the receiver.
# [9] = Pilot mini-pig dermal study; type: in vivo; settings: minipig, plasma, topical, 10 mg/cm^2 of 1% formulation over approximately 50 cm^2; all groups; below LLOQ; read-out: Plasma levels
# Source text: (§1) One pig/dose formulation was used. In-life PK analysis was completed.
# [10] = test system: mini-pigs; assay: Pilot mini-pig dermal study; type: in vivo; settings: DMSO, gel, ointment, lotion at 1%; TID 7 days, 10 mg/cm^2 on about 50 cm^2
# Source text: as §1
# [11] = in vivo
# [12] = test system: rabbits; assay: 13-week ocular toxicity study in rabbits with 4-week recovery (with TK); settings: (3%)
# [13] = Week 1, 1% solution (Formulation 15) 0.35 mg/eye TID, one grid row per dog
# [14] = Week 16, Compound 12 stopped at week 12, then 4 weeks CsA 0.2% ointment TID
# [15] = Weeks 1-12 of Compound 12 administration
# [16] = 0.5 hour postdose, ocular 1 mg/eye
# [17] = 0.5 hour postdose, ocular 1 mg/eye, male Sprague Dawley, above upper limit of quantification
# [18] = 2 hours postdose, ocular 1 mg/eye
# [19] = 8 hours postdose, ocular 1 mg/eye
# [20] = 24 hours postdose, ocular 1 mg/eye
# [21] = 30.0 mg/kg single IV bolus, from rat safety pharmacology study
# [22] = rat, 10.0 mg/kg single IV bolus
structure (smiles),measurement,setting,value
CS(=O)(=O)c1cccc(C[C@H](NC(=O)c2c(Cl)cc3c(c2Cl)CCN(C(=O)c2ccc4ccoc4c2)C3)C(=O)O)c1 [Compound 12],"Schirmer Tear Test Results (OD), Mean",[1]; Week 1,5.5 mm
same,"Schirmer Tear Test Results (OS), Mean",[1]; Week 1,4.2 mm
same,"Schirmer Tear Test Results (OS), individual dogs",[1]; [13],9 mm (2×) and 18 mm and 0 mm (3×) and 7 mm
same,"Schirmer Tear Test Results (OD), individual dogs",[1]; [13],8 mm (2×) and 6 mm (2×) and 15 mm and 0 mm and 5 mm
same,"Schirmer Tear Test Results (OD), Mean",[1]; Week 2,7.8 mm
same,"Schirmer Tear Test Results (OS), Mean",[1]; Week 2,4.8 mm
same,"Schirmer Tear Test Results (OS), individual dogs","[1]; Week 2, 1% solution TID",4 mm and 0 mm (2×) and 14 mm and 3 mm and 8 mm
same,"Schirmer Tear Test Results (OD), individual dogs","[1]; Week 2, 1% solution TID",10 mm and 2 mm (2×) and 18 mm and 11 mm (3×)
same,"Schirmer Tear Test Results (OD), Mean",[1]; Week 4,7.0 mm
same,"Schirmer Tear Test Results (OS), Mean",[1]; Week 4,6.7 mm
same,"Schirmer Tear Test Results (OS), individual dogs","[1]; Week 4, 1% solution TID",14 mm (2×) and 0 mm (2×) and 7 mm and 5 mm
same,"Schirmer Tear Test Results (OD), individual dogs","[1]; Week 4, 1% solution TID",15 mm and 2 mm and 12 mm and 0 mm and 5 mm and 10 mm (2×)
same,"Schirmer Tear Test Results (OD), Mean",[1]; Week 8,8.5 mm
same,"Schirmer Tear Test Results (OS), Mean",[1]; Week 8,6.5 mm
same,"Schirmer Tear Test Results (OS), individual dogs","[1]; Week 8, 1% solution TID",8 mm (2×) and 19 mm and 0 mm and 2 mm and 17 mm and 6 mm
same,"Schirmer Tear Test Results (OD), individual dogs","[1]; Week 8, 1% solution TID",17 mm and 1 mm and 16 mm and 8 mm and 7 mm (2×) and 11 mm
same,"Schirmer Tear Test Results (OD), Mean",[1]; Week 12,8.8 mm
same,"Schirmer Tear Test Results (OS), Mean",[1]; Week 12,8.7 mm
same,"Schirmer Tear Test Results (OS), individual dogs","[1]; Week 12, 1% solution TID",8 mm (2×) and 18 mm and 3 mm and 7 mm and 15 mm and 4 mm
same,"Schirmer Tear Test Results (OD), individual dogs","[1]; Week 12, 1% solution TID",16 mm and 0 mm and 13 mm (2×) and 8 mm and 7 mm and 9 mm
same,"Schirmer Tear Test Results (OS), Mean",[1]; Week 16 (after 4 weeks CsA),11.0 mm
same,"Schirmer Tear Test Results (OS), individual dogs",[1]; [14],17 mm and 18 mm and 3 mm and 5 mm and 16 mm and 7 mm and 19 mm
same,"Schirmer Tear Test Results (OD), individual dogs",[1]; [14],18 mm and 12 mm (2×) and 8 mm (3×) and 22** mm
same,"Maximum-Minimum Analysis, maximal change in STT, OD, per dog",[1]; [15],3 mm and 8 mm (3×) and −4 mm and 5 mm
same,"Maximum-Minimum Analysis, maximal change in STT, OS, per dog",[1]; [15],7 mm (2×) and 11 mm and 3 mm and 10 mm and 6 mm
same,Histopathological evaluation of conjunctival biopsies before and after treatment,[1]; pretreatment vs Week 12,attenuation of lymphocyte accumulation
same,Schirmer test scores over pretreatment,[1]; week 12,Significant improvement
same,Jurkat cell attachment to ICAM-1,"[2]; 30 min preincubation, 1 h at 37° C.",inhibition of Jurkat cell attachment with increasing dose
same,"dose response curve and IC50, Jurkat cell attachment",[2]; vs positive control,comparable to that of the known direct competitive LFA-1 antagonist
same,accumulation in tear with multiple ocular dose administration,[3]; BID and TID,no obvious evidence of accumulation
same,tear AUC and Cmax values,"[3]; dosing day 1, maintained throughout the trial",Dose related increases
same,"respiratory function (tidal volume, respiration rate, minute volume)",[4],No adverse changes
same,"Compound 12 Concentration, Aqueous humor",[5]; 0.5 hour after administration,1770 ng Equivalents [^14C]-Compound 12/g tissue
same,"Compound 12 Concentration, Conjunctiva (bulbar)",[5]; 0.5 hour after administration,31500 ng Equivalents [^14C]-Compound 12/g tissue
same,"Compound 12 Concentration, Conjunctiva (palpebral)",[5]; 0.5 hour after administration,26300 ng Equivalents [^14C]-Compound 12/g tissue
same,"Compound 12 Concentration, Cornea",[5]; 0.5 hour after administration,17150 ng Equivalents [^14C]-Compound 12/g tissue
same,"Compound 12 Concentration, Iris-ciliary body",[5]; 0.5 hour after administration,17550 ng Equivalents [^14C]-Compound 12/g tissue
same,"Compound 12 Concentration, Lens",[5]; 0.5 hour after administration,38.8 ng Equivalents [^14C]-Compound 12/g tissue
same,"Compound 12 Concentration, Optic Nerve",[5]; 0.5 hour after administration,796 ng Equivalents [^14C]-Compound 12/g tissue
same,"Compound 12 Concentration, Retina and Choroid (with RPE)",[5]; 0.5 hour after administration,510 ng Equivalents [^14C]-Compound 12/g tissue
same,"Compound 12 Concentration, Sclera",[5]; 0.5 hour after administration,2750 ng Equivalents [^14C]-Compound 12/g tissue
same,"Compound 12 Concentration, Vitreous Humor",[5]; 0.5 hour after administration,1330 ng Equivalents [^14C]-Compound 12/g tissue
same,"radioactivity concentration, eye",[5]; [16],18100 ng equivalents [^14C]-Compound 12/g
same,"radioactivity concentration, kidney",[5]; [16],151 ng equivalents [^14C]-Compound 12/g
same,"radioactivity concentration, liver",[5]; [16],272 ng equivalents [^14C]-Compound 12/g
same,"radioactivity concentration, uveal tract",[5]; [16],9330 ng equivalents [^14C]-Compound 12/g
same,"radioactivity concentration, esophageal contents",[5]; [17],399000 ng equivalents [^14C]-Compound 12/g
same,"radioactivity concentration, nasal turbinates",[5]; [17],352000 ng equivalents [^14C]-Compound 12/g
same,"radioactivity concentration, small intestinal contents",[5]; [17],349000 ng equivalents [^14C]-Compound 12/g
same,"decline of radioactivity concentration, esophageal contents",[5]; [18],~100 fold
same,"decline of radioactivity concentration, esophagus",[5]; [18],approximately 50 fold
same,"Compound 12 Concentration, Aqueous humor",[5]; 4.0 hours after administration,116 ng Equivalents [^14C]-Compound 12/g tissue
same,"Compound 12 Concentration, Conjunctiva (bulbar)",[5]; 4.0 hours after administration,4480 ng Equivalents [^14C]-Compound 12/g tissue
same,"Compound 12 Concentration, Conjunctiva (palpebral)",[5]; 4.0 hours after administration,21830 ng Equivalents [^14C]-Compound 12/g tissue
same,"Compound 12 Concentration, Cornea",[5]; 4.0 hours after administration,1346 ng Equivalents [^14C]-Compound 12/g tissue
same,"Compound 12 Concentration, Iris-ciliary body",[5]; 4.0 hours after administration,500 ng Equivalents [^14C]-Compound 12/g tissue
same,"Compound 12 Concentration, Lens",[5]; 4.0 hours after administration,9.69 ng Equivalents [^14C]-Compound 12/g tissue
same,"Compound 12 Concentration, Optic Nerve",[5]; 4.0 hours after administration,0 ng Equivalents [^14C]-Compound 12/g tissue
same,"Compound 12 Concentration, Retina and Choroid (with RPE)",[5]; 4.0 hours after administration,46.7 ng Equivalents [^14C]-Compound 12/g tissue
same,"Compound 12 Concentration, Sclera",[5]; 4.0 hours after administration,387 ng Equivalents [^14C]-Compound 12/g tissue
same,"Compound 12 Concentration, Vitreous Humor",[5]; 4.0 hours after administration,183 ng Equivalents [^14C]-Compound 12/g tissue
same,"radioactivity concentration, cecum contents",[5]; [19],57600 ng equivalents [^14C]-Compound 12/g
same,"radioactivity concentration, large intestinal contents",[5]; [19],133000 ng equivalents [^14C]-Compound 12/g
same,"radioactivity concentration, uveal tract","[5]; 12 hours postdose, ocular 1 mg/eye",610 ng equivalents [^14C]-Compound 12/g
same,"radioactivity concentration, cecum contents",[5]; [20],5870 ng equivalents [^14C]-Compound 12/g
same,"radioactivity concentration, large intestinal contents",[5]; [20],18000 ng equivalents [^14C]-Compound 12/g
same,"excretion in feces, of the administered radioactivity",[5]; IV administration 10 mg/kg,~95%
same,"excretion in feces, of the administered radioactivity",[5]; ocular administration 1 mg/eye,approximately 60%
same,"Urinary excretion, of the administered radioactivity",[5]; ocular or IV,up to 2%
same,binding to melanin,[5]; pigmented vs albino rats,did not preferentially bind to melanin
same,levels in conjunctiva/cornea,"[5]; rat, for 16 hrs",> 100 nM
same,"metabolites in pooled plasma, urine and fecal homogenates","[5]; up to 168 hrs, topical ocular or IV dose",no metabolites were isolated
same,Cmax,[6]; [21],5120 ng/mL
same,AUC,[6]; [21],2350 ng·h/mL
same,Cmax,[6]; [22],1060 ng/mL
same,MRT,[6]; [22],0.92 h
same,clearance,[6]; [22],173 mL/min/kg
same,half-life,[6]; [22],3.76 h
same,AUC,[6]; [22],728 ng·h/mL
same,Vd,"[6]; rat, 10.0 mg/kg single IV bolus, read-out: Vss",9.56 L/kg
same,solubility,[7]; ethanol/glycol/transcutol solution,10 % (w/w)
same,solubility,[7]; water/glycol/transcutol solution,2 % (w/w)
same,Compound 12 in dermis,[8],greater than 10 micromolar
same,dose penetration,[8],2-4%
same,concentration at 7 days,[9],< 0.5 ng/mL
same,"toxicity, dermal formulations",[10],No toxicity
same,ocular dose absorbed into the systemic circulation,[11],6.9-32%
same,NOAEL,[12],1.05 mg/eye/3× per day
